What all share (experiment): relative viability (nuclei count vs DMSO), 5 days (fraction); higher = more cells survive
Compound in assay [1]: C1=CC(=CC=C1C2=CC(=C(S2)NC(=O)N)C(=O)N)F [TPCA-1] + CS(=O)(=O)CCNCc1ccc(-c2ccc3ncnc(Nc4ccc(OCc5cccc(F)c5)c(Cl)c4)c3c2)o1 [Lapatinib] (partner 2 µM)
The essentials: (§1)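 Lung cancer cell lines, seeded in 1536-well plates, were treated the following day by pin tool with a single drug or with five library-drug doses (not always all listed) in √10 steps on top of a fixed anchor-drug dose. Cells were fixed and nuclei stained in one step after 5 days, and nuclei were counted. Relative viability is the nuclei count for treated wells divided by that for vehicle wells, reported as medians of duplicate plates.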

Compound in assay [2]: C1=CC(=CC=C1C2=CC(=C(S2)NC(=O)N)C(=O)N)F [TPCA-1] + COc1cc2c(Oc3ccc(NC(=O)C4(C(=O)Nc5ccc(F)cc5)CC4)cc3F)ccnc2cc1OCCCN1CCOCC1 [Foretinib] (partner 0.25 µM)
The essentials: as §1

Compound in assay [3]: C1/C(=C\C2=CC=CS2)/C(=O)/C(=C/C3=CC=CS3)/C1 + CC(=O)c1c(C)c2cnc(Nc3ccc(N4CCNCC4)cn3)nc2n(C2CCCC2)c1=O [Palbociclib] (partner 0.5 µM)
The essentials: as §1

Compound in assay [4]: C1=CC(=CC=C1C2=CC(=C(S2)NC(=O)N)C(=O)N)F [TPCA-1] + CC(C)C[C@H](NC(=O)[C@H](Cc1ccccc1)NC(=O)c1cnccn1)B(O)O [Bortezomib] (partner 0.002 µM)
The essentials: as §1

Turning to PC-3 [JPC-3], the relative viability in assay [1] (first compound 0.04 µM) came out at 0.435; in assay [1] (first compound 0.1265 µM), 0.487; in assay [1] (first compound 0.4 µM), 0.481; in assay [1] (first compound 1.265 µM) it was 0.454; in assay [1] (first compound 4 µM), 0.434; in assay [2] (first compound 0.04 µM) it was 1.03. Moreover, the relative viability was 1.08 in assay [2] (first compound 0.1265 µM); 0.968 in assay [2] (first compound 0.4 µM); 0.984 in assay [2] (first compound 1.265 µM); 1.02 in assay [2] (first compound 4 µM); 0.587 in assay [3] (first compound 0.6325 µM); 0.5 in assay [3] (first compound 2 µM). The relative viability is 0.43 in assay [3] (first compound 6.325 µM); 0.523 in assay [3] (first compound 20 µM); 0.896 in assay [4] (first compound 0.04 µM); 0.812 in assay [4] (first compound 0.1265 µM); 0.833 in assay [4] (first compound 0.4 µM); 0.792 in assay [4] (first compound 1.265 µM). In assay [4] (first compound 4 µM), the relative viability is 0.851.

For PC-14, the relative viability amounted to 0.336 in assay [1] (first compound 0.04 µM); 0.327 in assay [1] (first compound 0.1265 µM); 0.321 in assay [1] (first compound 0.4 µM); 0.394 in assay [1] (first compound 1.265 µM); 0.299 in assay [1] (first compound 4 µM); 1.01 in assay [2] (first compound 0.04 µM). Also, the relative viability in assay [2] (first compound 0.1265 µM) is 0.916; in assay [2] (first compound 0.4 µM), 0.957; in assay [2] (first compound 1.265 µM), 1.01; in assay [2] (first compound 4 µM) it was 0.79; in assay [3] (first compound 0.2 µM), 0.668; in assay [3] (first compound 0.6325 µM) it was 0.563. Moreover, the relative viability stood at 0.523 in assay [3] (first compound 2 µM); 0.435 in assay [3] (first compound 6.325 µM); 0.501 in assay [3] (first compound 20 µM); 0.903 in assay [4] (first compound 0.04 µM); 0.787 in assay [4] (first compound 0.1265 µM); 0.936 in assay [4] (first compound 0.4 µM). Also, the relative viability in assay [4] (first compound 1.265 µM) came out at 0.785; in assay [4] (first compound 4 µM), 0.574.

As to RERF-LC-KJ, the relative viability amounted to 0.966 in assay [1] (first compound 0.04 µM); 0.79 in assay [1] (first compound 0.1265 µM); 0.808 in assay [1] (first compound 0.4 µM); 0.809 in assay [1] (first compound 1.265 µM); 0.765 in assay [1] (first compound 4 µM); 0.904 in assay [2] (first compound 0.04 µM). In addition, the relative viability in assay [2] (first compound 0.1265 µM) turned out to be 0.997; in assay [2] (first compound 0.4 µM), 0.883; in assay [2] (first compound 1.265 µM), 0.836; in assay [2] (first compound 4 µM), 0.774; in assay [3] (first compound 0.2 µM) it was 1.04; in assay [3] (first compound 0.6325 µM) it was 1.2. The relative viability in assay [3] (first compound 2 µM) is 1.05; in assay [3] (first compound 6.325 µM) it was 0.965; in assay [3] (first compound 20 µM) it was 0.852; in assay [4] (first compound 0.04 µM), 1.32; in assay [4] (first compound 0.1265 µM), 1.09; in assay [4] (first compound 0.4 µM), 0.857. For the same cell line, the relative viability in assay [4] (first compound 1.265 µM) was determined as 0.916; in assay [4] (first compound 4 µM), 0.998.

Regarding SK-LU-1, the relative viability in assay [1] (first compound 0.04 µM) turned out to be 0.799; in assay [1] (first compound 0.1265 µM) it was 0.841; in assay [1] (first compound 0.4 µM) it was 0.888; in assay [1] (first compound 1.265 µM), 0.698; in assay [1] (first compound 4 µM) it was 0.569; in assay [2] (first compound 0.04 µM), 0.806. Moreover, the relative viability was 0.736 in assay [2] (first compound 0.1265 µM); 0.876 in assay [2] (first compound 0.4 µM); 0.617 in assay [2] (first compound 1.265 µM); 0.377 in assay [2] (first compound 4 µM); 0.39 in assay [3] (first compound 0.2 µM); 0.443 in assay [3] (first compound 0.6325 µM). Moreover, the relative viability in assay [3] (first compound 2 µM) is 0.427; in assay [3] (first compound 6.325 µM), 0.357; in assay [3] (first compound 20 µM) it was 0.399; in assay [4] (first compound 0.04 µM) it was 1.26; in assay [4] (first compound 0.1265 µM), 0.962; in assay [4] (first compound 0.4 µM), 1.1. Besides, the relative viability in assay [4] (first compound 1.265 µM) is 0.879; in assay [4] (first compound 4 µM), 0.739.

In the case of SW 1573, the relative viability came to 0.829 in assay [1] (first compound 0.04 µM); 1.04 in assay [1] (first compound 0.1265 µM); 1.17 in assay [1] (first compound 0.4 µM); 1.18 in assay [1] (first compound 1.265 µM); 1.19 in assay [1] (first compound 4 µM); 0.6 in assay [2] (first compound 0.04 µM). Also, the relative viability in assay [2] (first compound 0.1265 µM) was 0.811; in assay [2] (first compound 0.4 µM), 1.03; in assay [2] (first compound 1.265 µM), 0.964; in assay [2] (first compound 4 µM), 0.866; in assay [3] (first compound 0.2 µM) it was 0.444; in assay [3] (first compound 0.6325 µM) it was 0.459. Moreover, the relative viability in assay [3] (first compound 2 µM) was found to be 0.516; in assay [3] (first compound 6.325 µM), 0.366; in assay [3] (first compound 20 µM), 0.347; in assay [4] (first compound 0.04 µM), 1.07; in assay [4] (first compound 0.1265 µM) it was 1.19; in assay [4] (first compound 0.4 µM), 1.1. For the same cell line, the relative viability in assay [4] (first compound 1.265 µM) came out at 1.11; in assay [4] (first compound 4 µM), 0.834.

Source of the values: the supplement of paper PMC10307832.
